From patent EP4596574A1, “GLP-1/GCG/GIP TRIPLE-RECEPTOR AGONIST AND USE THEREOF” (Sunshine Lake Pharma Co., Ltd., priority 2022, dated 2024)
Starred links: 1 amine or outer side, 2 acyl side, 3 side chain; linkers in the order of their positions; H or OH if unused. Non-standard residues stand in square brackets, D forms with d. Residues, ends and D or L forms follow the SMILES beside them. Groups on a side chain read outwards from the residue. *: point of attachment. C18 diacid = O=C(O)CCCCCCCCCCCCCCCCC(=O)*; αMePhe(2-F) = C[C@](N)(Cc1ccccc1F)C(=O)O; γGlu = O=C(O)[C@H](CCC(=O)[*:2])N[*:1]; AEEA = NCCOCCOCC(=O)O; Aib = CC(C)(N)C(=O)O

Columns and labels:
Format in all cases: cell-based
GIPR = biological target: T1, GIPR (Homo sapiens, UniProt P48546); assay: In vitro cell activity, cAMP production in HEK293 cells expressing GIPR; conditions: HEK293-GIPR cells, cAMP; read-out: GIPR (EC50)
T1 construct: expressed in transfected cells; host or cells: HEK293 (HEK293-GIPR)
T1 sequence (P48546 22-466): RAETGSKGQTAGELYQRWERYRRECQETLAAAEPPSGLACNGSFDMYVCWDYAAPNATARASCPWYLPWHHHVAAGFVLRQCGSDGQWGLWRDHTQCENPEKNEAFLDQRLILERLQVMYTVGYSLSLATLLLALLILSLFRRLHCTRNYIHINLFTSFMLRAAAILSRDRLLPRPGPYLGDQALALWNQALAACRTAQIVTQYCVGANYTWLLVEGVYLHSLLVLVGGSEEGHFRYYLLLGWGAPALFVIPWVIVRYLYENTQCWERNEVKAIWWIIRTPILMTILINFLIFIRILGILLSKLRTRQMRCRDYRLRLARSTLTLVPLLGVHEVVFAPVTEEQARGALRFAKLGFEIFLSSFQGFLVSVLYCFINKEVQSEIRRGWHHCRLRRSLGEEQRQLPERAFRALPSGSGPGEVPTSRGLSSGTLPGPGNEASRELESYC
Summary of the method: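 HEK293 cells expressing human GIPR, thawed and diluted to 4×10^5 cells/mL, are stimulated with test compound. cAMP is measured by HTRF competition between cAMP-d2 and anti-cAMP cryptate. EC50 comes from a four-parameter nonlinear fit of signal ratio against concentration.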

GLP-1R = biological target: T2, GLP-1R (Homo sapiens, UniProt P43220); assay: In vitro cell activity, cAMP production in HEK293 cells expressing GLP-1R; conditions: HEK293-GLP-1R cells, cAMP; read-out: GLP-1R (EC50)
T2 construct: expressed in transfected cells; host or cells: HEK293 (HEK293-GLP-1R)
Summary of the method: (§1)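 HEK293 transfectants, 4×10^5 cells/mL, 384-well. Detection: cAMP-d2 + anti-cAMP cryptate 1:1, RT 1 h dark or 4 °C o/n. Read 665/620 nm; 4-parameter nonlinear fit → EC50.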

GCGR = biological target: T3, GCGR (Homo sapiens, UniProt P47871); assay: In vitro cell activity, cAMP production in HEK293 cells expressing GCGR; conditions: HEK293-GCGR cells, cAMP; read-out: GCGR (EC50)
T3 construct: expressed in transfected cells; host or cells: HEK293 (HEK293-GCGR)
Summary of the method: as §1

T3 sequence (P47871 26-477, species assumed): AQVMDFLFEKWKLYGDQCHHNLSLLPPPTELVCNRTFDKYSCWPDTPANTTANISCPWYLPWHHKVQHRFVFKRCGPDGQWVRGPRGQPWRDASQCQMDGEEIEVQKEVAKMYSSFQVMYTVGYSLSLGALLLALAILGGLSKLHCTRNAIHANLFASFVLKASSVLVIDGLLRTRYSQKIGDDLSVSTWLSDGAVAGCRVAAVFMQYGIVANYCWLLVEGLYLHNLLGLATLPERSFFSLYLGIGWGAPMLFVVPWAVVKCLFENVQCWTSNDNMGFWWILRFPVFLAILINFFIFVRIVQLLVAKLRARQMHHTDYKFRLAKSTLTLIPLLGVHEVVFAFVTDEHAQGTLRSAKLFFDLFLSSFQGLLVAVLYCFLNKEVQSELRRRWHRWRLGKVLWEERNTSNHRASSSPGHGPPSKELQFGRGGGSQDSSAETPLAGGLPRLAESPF
T2 sequence (P43220 24-463, species assumed): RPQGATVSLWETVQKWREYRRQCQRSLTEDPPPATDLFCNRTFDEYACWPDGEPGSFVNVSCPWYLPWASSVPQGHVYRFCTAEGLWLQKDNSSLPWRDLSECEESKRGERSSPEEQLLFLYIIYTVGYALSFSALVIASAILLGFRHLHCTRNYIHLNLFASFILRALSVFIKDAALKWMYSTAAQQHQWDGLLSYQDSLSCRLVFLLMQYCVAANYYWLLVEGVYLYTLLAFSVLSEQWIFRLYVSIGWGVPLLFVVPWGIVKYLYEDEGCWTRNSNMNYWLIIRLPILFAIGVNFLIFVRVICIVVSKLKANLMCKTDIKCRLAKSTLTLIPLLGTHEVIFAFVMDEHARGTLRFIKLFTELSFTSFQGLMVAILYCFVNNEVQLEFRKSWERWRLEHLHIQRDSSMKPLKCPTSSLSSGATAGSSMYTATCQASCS

SMILES	EC50 (GIPR) [nM]	EC50 (GLP-1R) [nM]	EC50 (GCGR) [nM]
CC[C@H](C)[C@H](NC(=O)[C@H](Cc1ccccc1)NC(=O)[C@H](C)NC(=O)[C@H](CCCNC(=N)N)NC(=O)[C@H](C)NC(=O)[C@H](CCCNC(=N)N)NC(=O)[C@H](CCCCNC(=O)COCCOCCNC(=O)CC[C@H](NC(=O)CCCCCCCCCCCCCCCCCCC(=O)O)C(=O)O)NC(=O)[C@H](CCC(=O)O)NC(=O)[C@H](CC(=O)O)NC(=O)[C@H](CC(C)C)NC(=O)[C@H](CC(C)C)NC(=O)[C@@H](NC(=O)[C@H](CO)NC(=O)[C@H](Cc1ccc(O)cc1)NC(=O)[C@H](CC(=O)O)NC(=O)[C@H](CO)NC(=O)[C@@H](NC(=O)[C@](C)(Cc1ccccc1F)NC(=O)[C@@H](NC(=O)CNC(=O)[C@H](CCC(N)=O)NC(=O)C(C)(C)NC(=O)[C@@H](N)Cc1ccc(O)cc1)[C@@H](C)O)[C@@H](C)O)[C@@H](C)CC)C(=O)N[C@@H](CCC(=O)O)C(=O)N[C@@H](Cc1ccc(O)cc1)C(=O)N[C@@H](CC(C)C)C(=O)N[C@@H](CC(C)C)C(=O)N[C@@H](C)C(=O)NCC(=O)NCC(=O)N1CCC[C@H]1C(=O)N[C@@H](CO)C(=O)N[C@@H](CO)C(=O)NCC(=O)N[C@@H](C)C(=O)N1CCC[C@H]1C(=O)N1CCC[C@H]1C(=O)N1CCC[C@H]1C(=O)N[C@@H](CO)C(=O)O [HEC-PT88]	0.485	0.13	0.035
CC[C@H](C)[C@H](NC(=O)[C@H](CCCCN)NC(=O)[C@H](CC(=O)O)NC(=O)[C@H](CCCCNC(=O)COCCOCCNC(=O)CC[C@H](NC(=O)CCCCCCCCCCCCCCCCC(=O)O)C(=O)O)NC(=O)[C@H](CC(C)C)NC(=O)[C@@H](NC(=O)[C@H](CO)NC(=O)[C@H](Cc1ccc(O)cc1)NC(=O)[C@H](CC(=O)O)NC(=O)[C@H](CO)NC(=O)[C@@H](NC(=O)[C@](C)(Cc1ccccc1F)NC(=O)[C@@H](NC(=O)CNC(=O)[C@H](CCC(N)=O)NC(=O)C(C)(C)NC(=O)[C@@H](N)Cc1ccc(O)cc1)[C@@H](C)O)[C@@H](C)O)[C@@H](C)CC)C(=O)N[C@@H](C)C(=O)N[C@@H](CCC(N)=O)C(=O)N[C@@H](CCC(N)=O)C(=O)N[C@@H](C)C(=O)N[C@@H](Cc1ccccc1)C(=O)N[C@H](C(=O)N[C@@H](CCC(=O)O)C(=O)N[C@@H](Cc1ccc(O)cc1)C(=O)N[C@@H](CC(C)C)C(=O)N[C@@H](CC(C)C)C(=O)N[C@@H](C)C(=O)NCC(=O)NCC(=O)N1CCC[C@H]1C(=O)N[C@@H](CO)C(=O)N[C@@H](CO)C(=O)NCC(=O)N[C@@H](C)C(=O)N1CCC[C@H]1C(=O)N1CCC[C@H]1C(=O)N1CCC[C@H]1C(=O)N[C@@H](CO)C(N)=O)[C@@H](C)CC [HEC-PT122] (H-Y[Aib]QGT[αMePhe(2-F)]TSDYSILK([AEEA-γGlu-C18 diacid])DKIAQQAFIEYLLAGGPSSGAPPPS-NH2)	0.0276	0.0893	0.162
CC[C@H](C)[C@H](NC(=O)[C@H](Cc1ccccc1)NC(=O)[C@H](C)NC(=O)[C@H](CCCNC(=N)N)NC(=O)[C@H](CCC(N)=O)NC(=O)[C@H](CCCNC(=N)N)NC(=O)[C@H](CCCCNC(=O)COCCOCCNC(=O)CC[C@H](NC(=O)CCCCCCCCCCCCCCCCC(=O)O)C(=O)O)NC(=O)[C@H](CCC(=O)O)NC(=O)[C@H](CC(=O)O)NC(=O)[C@H](CC(C)C)NC(=O)[C@H](CC(C)C)NC(=O)[C@@H](NC(=O)[C@H](CO)NC(=O)[C@H](Cc1ccc(O)cc1)NC(=O)[C@H](CC(=O)O)NC(=O)[C@H](CO)NC(=O)[C@@H](NC(=O)[C@](C)(Cc1ccccc1F)NC(=O)[C@@H](NC(=O)CNC(=O)[C@H](CCC(N)=O)NC(=O)C(C)(C)NC(=O)[C@@H](N)Cc1ccc(O)cc1)[C@@H](C)O)[C@@H](C)O)[C@@H](C)CC)C(=O)N[C@@H](CCC(=O)O)C(=O)N[C@@H](Cc1ccc(O)cc1)C(=O)N[C@@H](CC(C)C)C(=O)N[C@@H](CC(C)C)C(=O)N[C@@H](CCC(=O)O)C(=O)NCC(=O)NCC(=O)N1CCC[C@H]1C(=O)N[C@@H](CO)C(=O)N[C@@H](CO)C(=O)NCC(=O)N[C@@H](C)C(=O)N1CCC[C@H]1C(=O)N1CCC[C@H]1C(=O)N1CCC[C@H]1C(=O)N[C@@H](CO)C(=O)O [HEC-PT124]	0.152	0.228	0.332
